In general, inhibition refers to the drop in the measured response relative to a control, in per cent. Higher therefore signals a response far below the control. The term LD50 denotes the dose expected to kill half of the subjects tested.

“Also recorded” adds a separate entry of the source.

Consider three molecules from patent US4695576A, “L-N-n-propylpipecolic acid-2,6-xylidide” (priority 1985, dated 1987).

In series [1] the test system is peripheral nerve endings of the epidermis. The experiment in a line: Intracutaneous wheals, infiltration anesthesia on forearms of man. The series is classed as in vivo. The note with it: Conc. 0.25%; 12 healthy volunteers, pinprick. The source says: By use of intracutaneous wheals it is possible to measure the analgesic effect of an anesthetic on the peripheral nerve endings of the epidermis.
This technique gives information about:
(1) The duration of anesthesia.
^1 Infiltration anesthesia on forearms of man. The test solutions wer
injected intracutaneously on the dorsum of the forearms of 12 healthy
volunteers, 20-25 years old. Three wheals were made on each arm in a
rotating system in a doublebind fashion. The local anesthetic effect was
tested using a pinprick technique. The "duration of anesthesia" was
defined as the time during which none out of six pinpricks into the wheal
was felt. The method has been described by Dhuner et al. (1972). […]

In series [2] the test system is ulnar volar nerves. The series can be described thus: Finger blockade, digital nerve blocks in man. Format: in vivo. The note with it: for Time of onset, finger blockade: time from injection to complete analgesia. The method, then: ^2 Digital nerve blocks in man. The test solutions were injected to
block the ulnar volar nerves on the 2nd and 4th fingers of the same
volunteers who had participated in the intracutaneous wheal tests
described above. The tests were carried out in a double blind fashion in
rotating system, so that each solution was used with equal frequency on
each of the blocked fingers. A total of for injections 1.0 ml per
injection, was done in each subject. One week later the procedure was
repeated in the same subjects using the remaining test solutions. This
method has been described by Dhuner et al. (1972) (for citation see Table
2 footnote 1). To measure the efficacy and duration of the blocks, the
individual fingers were pricked rapidly 10 times with a needle algesimete
and the number of painful pricks noted. Each finger was tested every five
minutes until complete recovery. The time of complete anesthesia has been
called "duration of anesthesia".
*i.e. the time from injection to complete analgesia?
**i.e. the number of successful anesthesias of total number of
anesthesias performed (no anesthesia is possible if the ulnar volar nerve
are not contacted by the anesthetic).

Series [3] has as its system skin. The experiment in a line: Skin temperature measurements within intracutaneous wheals. The series is classed as in vivo, man. Here is the method:
The mean value of 6 wheals for each substance forms the basis for the values. The control values, however, represent the mean value obtained from 4 different sites measured outside the wheals 90 degrees apart and 2 centimeters from the wheal's center.
In the temperature measurements, an Oriel temperature apparatus* has been used. This is battery driven and is connected to a detector (diameter, 2.5 mm) and has an accuracy of ±0.1° C. The temperature of the skin is measured by pressing the detector against the skin with a pressure of 100 grams. It is retained against the skin until a constant temperature is obtained.
In Table 4, T1 is the measurement obtained at the center of the wheal, and T2 is the average of four measurements taken 90 degrees apart outside of the wheal and within 2 centimeters of the wheal's center.

For series [4], the system named is pigs. The experiment in a line: Intracoronary administration in anesthetized pigs. The series is classed as in vivo, pig. The conditions noted are these: intracoronary. The method, then: Eight pigs weighing around 50 kg were anesthetized with a continuous infusion of pentobarbital at 600 mg/h. Ventilation was established via a tracheotomy with 30% oxygen in nitrogen and normoventilation by a Siemens-Elema Servoventilator 900B. The following catheters were inserted after cutdown: Left ventricular, aortic, pulmonary arterial, great cardiac venous, left anterior descending coronary, arterial and central venous. […] The corresponding doses for bupivaciane were 0.25, 0.5, 1, 2 and 4 mg and for LEA 0.33, 0.66, 1.33, 2.66 and 5.33 mg. The injection rate was adjusted according to the preinjection coronary blood flow. Each series of drug injections was preceded by a placebo infusion. Total hemodynamic and electrocardiographic recovery was allowed between doses and there was a one hour resting period between drugs.
Central pressures, left ventricular dP/dT and a complete chest lead ECG were recorded continuously. Cardiac output and great cardiac venous blood flow were determined before and directly after each dose of the local anesthetic agent.

The target of series [5] is T1, guinea-pig papillary muscle sodium channels (Cavia porcellus, UniProt H0V4Z8).
T1 construct: Vmax of action potential as measure of sodium current
The series can be described thus: Action on guinea-pig papillary muscle sodium channels (Vmax, recovery from block). The note with it: for recovery to 90% of drug-blocked channels: -90 mV; for recovery from block: especially at hyperpolarized levels (-100--120 mV). The series is classed as cell-based. From the text: Depression of cardiac conduction appears to be one of the primary mechanisms underlying local anesthetic cardiotoxicity. Depression of conduction by local anesthetics in both nerve and cardiac tissue results from a block of sodium channels. Furthermore, the degree of sodium channel block by local anesthetics is dependent upon the state of the sodium channel. […] Consequently, a block of sodium channels develops during the upstroke and plateau of the action potential and dissipates during the diastolic interval between beats. Since the effect of a local anesthetic is both state and time dependent, changes in both heart rate and diastolic membrane potential may alter drug action substantially.
(§1) Guinea pig papillary tests were carried out according to the recommendation of the "Report of the Subcommittee on Cardiotoxicity of Local Anesthetics" (Leroy D. Vandam, M.D., chairman). Guinea pig papillary muscle excised from the right ventricle were mounted in a single sucrose gap apparatus (Arlock & Katzune, 1985). Solutions maintained at 37° C.±0.5° continuously perfused the gap compartments. The rear chamber contained isotonic potassium chloride solution. The drugs were added to a Tris-Tyrode solution passing the tip of the muscle. The Tris-Tyrode solution contained (mM): NaCl, 145; KCl, 4; CaCl2, 1.2; MgCl2, 1.05; glucose, 5.5 Tris maleate, 5. It was adjusted to pH 7.4 with trismaleate and HCl before use and gassed with 100% oxygen. Isotonic sucrose solution isolated the rear from the tip to enable current- and voltage-clamping.
The muscles were depolarized with long current pulses (1500 msec). These current steps can induce automaticity or DIA (depolarization induced automaticity). The steps were adjusted so the preparations were depolarized to from -50 to -30 mV since that is in that range that calcium current conductance is initiated.
The results represent the mean from representative experiments. In the absence of drug, Vmax (maximum upstroke velocity of the action potential) recovers from inactivation with an exponential time constant of less that 30 msec at -90 mV (Gettes and Reuter, 1974). […] The time constant of this recovery process is different for channels blocked by different drugs.

Series [6] in a line: Force of contraction of guinea pig papillary muscle. Format: cell-based. The conditions noted are these: guinea pig, papillary muscle. Here is the method:
(§2) In order to initiate an investigation without the necessity to involve voltage-clamp of the calcium current, the preparations were subject to long depolarizing induced automaticity. If the cells are depolarized from about -50 to about -30 mV the automaticity is dependent on a transmembrane calcium current.
as §1, with “Guinea pig papillary muscle excised from the right ventricle were mounted in a single sucrose gap apparatus (Arlock & Katzune, 1985).” left out, “The Tris-Tyrode solution contained (mM): NaCl, 145; KCl, 4; CaCl2, 1.2; MgCl2, 1.05; glucose, 5.5 Tris maleate, 5.” left out
(§3) The force of contraction was measured with a strain gauge transducer before and after the addition of the test compounds to the medium. The percent reduction in maximum force of contraction from the control was calculated.

The subject of series [7] is guinea pig papillary muscle. The series is described as above. The series is classed as cell-based. The note with it: listed as LEA. Here is the method: as §2
as §1, with “Guinea pig papillary muscle excised from the right ventricle were mounted in a single sucrose gap apparatus (Arlock & Katzune, 1985).” left out, “The Tris-Tyrode solution contained (mM): NaCl, 145; KCl, 4; CaCl2, 1.2; MgCl2, 1.05; glucose, 5.5 Tris maleate, 5.” left out
as §3

Series [8] can be described thus: Anesthetic activity/potency comparison. The note with it: comparison within homologous series. The series is classed as in vivo.
Series [9] concerns tissue. The experiment in a line: Tissue toxicity limits (Trypan blue test, threshold of tissue irritancy). Format: in vivo. The note with it: in vivo. The source says:
The toxicity of the homologous series of N-alkylpipecolic acid-2,6-xylidides increases step wise and quickly with the lengthening of the alkyl chain. This is manifest from Table 1 set forth below, which compares racemic mixtures of alkyl homologues having from 1 to 5 carbon atoms.
*Trypan blue test; Hoppe et al. (1950), 39, 147-151 "Use of Trypan Blue
and Rabbit Eye Tests For Irritation", J. Amer. Pharm. Assoc. (Scient.
Ed.), the values are approximate threshold values of tissue irritancy.

Series [10] in a line: in vivo. The note with it: mouse, iv, read-out: LD50 I.v. (intravenous).
Series [11] relates to conscious rats. The experiment in a line: Heart-toxicity in conscious rats (ECG). The series is classed as in vivo, Male Sprague Dawley rats. Here is the method: Male Sprague Dawley rats weighing 290-360 grams were prepared with intravenous catheters under local anesthesia using prilocaine (Citanest*) one hour before experiments. Rapid intravenous bolus injections over 5.0 seconds were given to groups of 8 rats, with a single injection to each animal. […] The ECG was recorded on a Mingograf 34. Convulsions were recorded manually with an electronic marker on one channel of the Mingograf. Only "primary" arrhythmias occurring during the first 60 seconds have been analyzed to avoid confusion with late arrhythmias occurring secondary to respiratory arrest or cardiovascular collapse.

For series [12] the following is noted: background statement; cited from earlier work.

Regarding `CCCN1CCCC[C@H]1C(=O)Nc1c(C)cccc1C` [3 L, L-N-n-propylpipecolic acid-2,6-xylidide], the “Analgesia-duration, intracutaneous wheals” value in series [1] worked out at 220 ± 23 min. Moreover, in series [2] (Concentration 0.25%), the “Analgesia-duration, finger blockade” value is 739 ± 46 min; the “Frequency (successful anesthesias of total performed)” value is 6/7; the “Time of onset, finger blockade” value came out at 12 ± 2 min. Besides, the “Temperature Difference (T1 wheal vs T2 controls)” value in series [3] (Conc. 0.25%, HCl-salt, 10 minutes after injection) is -1.2 °C. In addition, the “T1 Intracutaneous Wheal temperature” value in [3] (Conc. 0.25%, HCl-salt, 10 minutes after injection, mean of 6 wheals) is 30.0 °C. In addition, the “effect on temperature over the wheal” value in [3] (comparison with lidocaine + adrenaline) is reported as “lowers the temperature over its wheal to approximately the same extent as the combination of lidocaine with adrenaline”. The sudden cardiac collapse entry in [4] is recorded as “not”. In addition, in series [5] (10^-4 M for a short period), the Vmax depression entry is “very depressed” and the attenuated excitability entry is given as “no attenuated excitability could be detected”. Besides, in [5] (10^-4 M, stimulus rate 1 Hz), the “time to full recovery of Vmax” value is 20 min. For the same molecule, in series [5] (25 min. washout after 10^-4 M), the “elimination from the tissue (washout)” value is “readily eliminated from the tissue”. For the same molecule, the “recovery to 90% of drug-blocked channels” value in series [5] turned out to be 2048 ms. Moreover, in [5] (listed as LEA), the “recovery from block” value is “recovers faster; also recorded: considerably faster”. For the same molecule, in [6], the inhibition at 5 µM worked out at 13.8%, the inhibition at 10 µM is 9.6% and the inhibition at 100 µM was determined as 8%. Besides, the “effect on force of contraction/contractility” value in series [7] is listed as “only moderately diminished; also recorded: very mild depressant actions”. In addition, the “anesthetic effect” value in series [8] is “optimal increase of anesthetic effects; also recorded: markedly superior”.
In the case of `CCN1CCCCC1C(=O)Nc1c(C)cccc1C` (stereo not shown) [2 R, N--ethylpipecolic acid-2,6-xylidide], the “Tissue toxicity limits in %” value in series [9] came to 3.0%. The LD50 in series [10] came out at 21 mg/kg. In series [2] (Concentration 0.5%), the “Analgesia-duration, finger blockade” value is 123 ± 19 min; the “Frequency (successful anesthesias of total performed)” value is given as 12/12; the “Time of onset, finger blockade” value turned out to be 10 ± 1 min.
With `CCN(CC)CC(=O)Nc1c(C)cccc1C` [Lidocaine, 2-diethylamino-2',6'-acetoxylidide], the “Atrioventricular block, rats responding/total” value in [11] (14 umol/kg i.v. bolus) was 0/8; in series [11] (20 umol/kg i.v. bolus), 0/8; in series [11] (28 umol/kg i.v. bolus), 3/8; in [11] (40 umol/kg i.v. bolus), 4/8; in series [11] (56 umol/kg i.v. bolus), 8/8. Further, the “Ventricular arrhythmias, rats responding/total” value is listed as 0/8 in [11] (14 umol/kg i.v. bolus); 0/8 in series [11] (20 umol/kg i.v. bolus); 0/8 in series [11] (28 umol/kg i.v. bolus); 2/8 in [11] (40 umol/kg i.v. bolus); 1/8 in [11] (56 umol/kg i.v. bolus). For the same molecule, the “potency to induce atrioventricular conduction disturbances” value in [11] (rat, in vivo) is recorded as “least potent”. Also, in [5] (10 uM), the “block of channels; fast component not measurable” value was “virtually all channels were blocked”. Besides, the “recovery to 90% of drug-blocked channels” value in series [5] was determined as 308 ms. For the same molecule, the “potency on cardiac sodium channels” value in series [5] (equimolar concentrations) was “lowest potency”. In addition, in [5], the “recovery from block” value is listed as “considerably faster”. Besides, the “local anesthetic effect duration for epidural use” value in series [12] was “too short for epidural use”.
